pIC50: −log10 of the molar value. Counter-ions that a name gives are not always drawn.
Key:
FLT3 = molecular target: T1, FLT3 (Homo sapiens, UniProt P36888); assay: Inhibitory activity against FLT3 autophosphorylation using ELISA method; type: cell-based; conditions: MV4-11 cells, 1 hr with compound, read-out: IC50 of FLT3-phosphorylation
T1 sequence (P36888 with tags, fused parts or gaps INS600HVDFREYEYD): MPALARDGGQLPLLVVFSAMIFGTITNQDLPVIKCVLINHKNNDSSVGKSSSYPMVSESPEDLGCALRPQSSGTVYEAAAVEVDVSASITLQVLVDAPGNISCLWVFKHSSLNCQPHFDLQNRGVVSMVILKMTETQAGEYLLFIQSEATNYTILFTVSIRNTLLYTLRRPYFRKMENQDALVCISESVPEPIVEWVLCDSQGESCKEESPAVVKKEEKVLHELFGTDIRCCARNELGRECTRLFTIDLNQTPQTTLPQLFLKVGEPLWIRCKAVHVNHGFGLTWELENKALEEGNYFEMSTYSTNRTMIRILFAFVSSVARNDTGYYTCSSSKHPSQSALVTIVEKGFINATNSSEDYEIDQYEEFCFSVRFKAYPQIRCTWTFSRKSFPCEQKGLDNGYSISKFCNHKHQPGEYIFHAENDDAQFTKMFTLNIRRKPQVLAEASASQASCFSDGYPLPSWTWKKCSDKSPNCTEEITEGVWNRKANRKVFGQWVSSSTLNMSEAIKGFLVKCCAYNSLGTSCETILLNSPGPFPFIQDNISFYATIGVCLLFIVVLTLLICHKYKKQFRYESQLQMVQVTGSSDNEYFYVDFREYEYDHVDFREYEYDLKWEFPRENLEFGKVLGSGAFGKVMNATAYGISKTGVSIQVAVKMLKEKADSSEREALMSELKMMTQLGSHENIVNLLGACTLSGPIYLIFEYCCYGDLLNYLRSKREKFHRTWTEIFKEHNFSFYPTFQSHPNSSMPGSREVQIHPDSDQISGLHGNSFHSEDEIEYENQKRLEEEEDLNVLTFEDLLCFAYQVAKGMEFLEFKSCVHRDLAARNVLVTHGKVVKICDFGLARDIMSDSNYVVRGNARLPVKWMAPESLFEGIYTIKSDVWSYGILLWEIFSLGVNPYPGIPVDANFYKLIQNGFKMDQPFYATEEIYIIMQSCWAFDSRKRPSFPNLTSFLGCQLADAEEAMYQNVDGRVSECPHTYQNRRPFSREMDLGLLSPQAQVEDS
Method: Pharmacological Test Example 1
Measurement of Inhibitory Activity Against FLT3 Autophosphorylation Using ELISA Method
Human leukemia cells MV4-11 (ATCC number: CRL-9591) were cultured in an IMDM medium containing 10% fetal calf serum (purchased from SIGMA) within a 5% carbon dioxide incubator until 50 to 90% confluent. The harvested cells were seeded into 96-wells, plates, containing an IMDM medium containing 0.1% fetal calf serum, in a 96-well multiscreen plate in an amount of 5.0×10^5 per well, a solution of the test compound in dimethyl sulfoxide was added to each well, and the cultivation was continued at 37° C. for one hr. The medium was removed, followed by washing with phosphate buffered saline. A lysis buffer (60 μl) (20 mM HEPES (pH 7.4), 150 mM NaCl, 0.2% Triton X-100, 10% glycerol, 5 mM sodium orthovanadylate, 5 mM disodium ethylenediaminetetraacetate, and 2 mM Na4P2O7) was then added thereto. The mixture was shaken at 4° C. for 2 hr to prepare a cell extracts.
Separately, phosphate buffered saline (50 μl, pH 7.4) containing 5 μg/ml of anti-phospho-tyrosine antibody (PY20; purchased from Transduction Laboratories) was added to a 96-well microplate for ELISA (Maxisorp; purchased from NUNC), followed by standing at 4° C. overnight to form a solid phase on the wells. After washing of the plate, 250 μl of a blocking solution was added, followed by standing at room temperature for 3 hr to perform blocking. After washing, the whole quantity of the cell extract was transferred to the wells, and the plate was then allowed to stand at 4° C. overnight. After washing, an anti-FLT3 antibody (Flt3/Flk2 (C-20), purchased from Santa Cruz Biotechnology) was allowed to react at room temperature for 2 hr, and, after washing, a peroxidase-labeled anti-rabbit Ig antibody (purchased from Amersham) was allowed to react at room temperature for one hr. After washing, a chromophoric substrate for peroxidase (purchased from Sumitomo Bakelite Co., Ltd.) was added thereto to initiate a reaction. After a suitable level of color development, a reaction termination solution was added to stop the reaction, and the absorbance at 450 nm was measured with a microplate reader. The FLT3-phosphorylation activity for each well was determined by presuming the absorbance without the addition of the medicament to be 100% FLT3-phosphorylation activity and the absorbance with the addition of a large excess of a positive control (Compound 1, 10 μM) to be 0% FLT3-phosphorylation activity. The concentration of the test compound was varied on several levels, the FLT3-phosphorylation inhibitory activity was determined for each case, and the concentration of the test compound necessary for inhibiting 50% of FLT3-phosphorylation (IC50) was calculated.

MV4-11 = assay: Cell growth inhibitory test MV4-11 (WST-1); type: cell-based, human; conditions: Homo sapiens, MV4-11, 72 h, MV4-11 cells, 3 days culture
Procedure, shortened: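 MV4-11 leukemia cells (3×10^3/well, DMEM + 10% FCS) were cultured 3 days with compound in DMSO at 5% CO2. Growth read by WST-1 absorbance at 450 nm (ref 650 nm), normalized to untreated (100%) and cell-free (0%) wells; IC50 from multiple concentrations.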

MOLM13 = assay: Cell growth inhibitory activities on cultured human leukemia cells MOLM-13 (WST-1); type: cell-based; conditions: Homo sapiens, MOLM-13, 72 h, 3 days culture

Row | pIC50 (FLT3) | pIC50 (MV4-11) | IC50 (MOLM13) [nM] | SMILES
1 | 8.15 | 8.70 | 3 | COc1cc2nccc(Oc3ccc(NC(=O)NCCC(C)(C)C)cc3C)c2cc1OC [Compound 3, 1-[4-(6,7-Dimethoxy-quinolin-4-yloxy)-3-methyl-phenyl]-3-(3,3-dimethyl-butyl)-urea]
2 | 7.03 | 9.00 | 2 | COc1cc2c(Oc3ccc(NC(=O)NCCC(C)(C)C)cc3)ccnc2cc1OCCN1CCCCC1 [Compound 40, 1-{4-[6-Methoxy-7-(2-piperidin-1-yl-ethoxy)-quinolin-4-yloxy]-phenyl}-3-(3,3-dimethyl-butyl)-urea hydrochloride]

Source: patent publication US20080207617A1, “Quinoline Derivatives and Quinazoline Derivatives Inhibiting Autophosphrylation of Flt3 and Medicinal Compositions Containing the Same” (KIRIN BEER KABUSHIKI KAISHA, priority 2002, published 2008)
